Laboratory results published in PubChem BioAssay AID1963873 (Molecular Pharmacology Branch, DTP, NCI, 2024).

Test system: 276233-004-R-J1-PDC KRAS spheroids with HUVEC/MSC, viability
Test: Anticancer human tumor 276233-004-R-J1-PDC patient-derived colon adenocarcinoma cell line growth inhibition [KRAS2]
Details: for IC50: curve of first compound; for viability, T/C: stronger effect = lower value
Outline: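 KRAS-mutant tumor cells were grown as spheroids with HUVEC endothelial cells and human MSCs as stroma. Targeted agents were tested alone and with KRAS pathway inhibitors. Doses started at or near clinical Cmax, or 10 microM, descending half-log.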

[1] = second compound 0.1 µM, first compound 0.000316 µM
[2] = second compound 0.1 µM, first compound 0.001 µM
[3] = second compound 0.1 µM, first compound 0.00316 µM
[4] = second compound 0.1 µM, first compound 0.01 µM
[5] = second compound 0.1 µM, first compound 0.0316 µM
[6] = second compound 0.316 µM, first compound 0.000316 µM
[7] = second compound 0.316 µM, first compound 0.001 µM
[8] = second compound 0.316 µM, first compound 0.00316 µM
[9] = second compound 0.316 µM, first compound 0.01 µM
[10] = second compound 0.316 µM, first compound 0.0316 µM
[11] = second compound 1 µM, first compound 0.000316 µM
[12] = second compound 1 µM, first compound 0.001 µM
[13] = second compound 1 µM, first compound 0.00316 µM
[14] = second compound 1 µM, first compound 0.01 µM
[15] = second compound 1 µM, first compound 0.0316 µM
[16] = second compound 3.16 µM, first compound 0.000316 µM
[17] = second compound 3.16 µM, first compound 0.001 µM
[18] = second compound 3.16 µM, first compound 0.00316 µM
[19] = second compound 3.16 µM, first compound 0.01 µM
[20] = second compound 3.16 µM, first compound 0.0316 µM
[21] = second compound 10 µM, first compound 0.000316 µM
[22] = second compound 10 µM, first compound 0.001 µM
[23] = second compound 10 µM, first compound 0.00316 µM
[24] = second compound 10 µM, first compound 0.01 µM
[25] = second compound 10 µM, first compound 0.0316 µM
[26] = second compound 0.1 µM, first compound 0.1 µM
[27] = second compound 0.1 µM, first compound 0.316 µM
[28] = second compound 0.1 µM, first compound 1 µM
[29] = second compound 0.1 µM, first compound 3.16 µM
[30] = second compound 0.316 µM, first compound 0.1 µM
[31] = second compound 0.316 µM, first compound 0.316 µM
[32] = second compound 0.316 µM, first compound 1 µM
[33] = second compound 0.316 µM, first compound 3.16 µM
[34] = second compound 1 µM, first compound 0.1 µM
[35] = second compound 1 µM, first compound 0.316 µM
[36] = second compound 1 µM, first compound 1 µM
[37] = second compound 1 µM, first compound 3.16 µM
[38] = second compound 3.16 µM, first compound 0.1 µM
[39] = second compound 3.16 µM, first compound 0.316 µM
[40] = second compound 3.16 µM, first compound 1 µM
[41] = second compound 3.16 µM, first compound 3.16 µM
[42] = second compound 10 µM, first compound 0.1 µM
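Further: cells exposed to agents for seven days before viability read.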
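Wherever viability, T/C is given: 100% = DMSO vehicle control wells and lower values mean fewer viable cells.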

| Compound | IC50 (second compound 0.1 µM) [nM] | IC50 (second compound 0.316 µM) [nM] | IC50 (second compound 1 µM) [nM] | IC50 (second compound 3.16 µM) [nM] | IC50 (second compound 10 µM) [nM] | viability, T/C [1] [%] | viability, T/C [4] [%] | viability, T/C [5] [%] | viability, T/C [9] [%] | viability, T/C [10] [%] | viability, T/C [14] [%] | viability, T/C [15] [%] | viability, T/C [19] [%] | viability, T/C [20] [%] | viability, T/C [24] [%] | viability, T/C [25] [%] | viability, T/C [26] [%] | viability, T/C [30] [%] | viability, T/C [34] [%] | viability, T/C [38] [%] | also measured |
| --- | --- | --- | --- | --- | --- | --- | --- | --- | --- | --- | --- | --- | --- | --- | --- | --- | --- | --- | --- | --- | --- |
| CC(=O)Nc1cccc(-n2c(=O)n(C3CC3)c(=O)c3c(Nc4ccc(I)cc4F)n(C)c(=O)c(C)c32)c1 + C=CC(=O)N1CCN(c2nc(=O)n(-c3c(C)ccnc3C(C)C)c3nc(-c4c(O)cccc4F)c(F)cc23)C(C)C1 | 6.44 | 9.46 | 9.28 | 6.41 | 2.45 | 97.5 | 45.4 | 21.3 | 47.9 | 18.6 | 49.5 | 19.4 | 45.9 | 24.2 | 36.8 | 21.3 | – | – | – | – | viability, T/C (second compound 0.1 µM, first compound 0.0001 µM): 89.9%; viability, T/C [2]: 85.7%; viability, T/C [3]: 58.9%; viability, T/C (second compound 0.316 µM, first compound 0.0001 µM): 87.1%; viability, T/C [6]: 84.9%; viability, T/C [7]: 76.9%; viability, T/C [8]: 74%; viability, T/C (second compound 1 µM, first compound 0.0001 µM): 102%; viability, T/C [11]: 85.5%; viability, T/C [12]: 80%; viability, T/C [13]: 71.9%; viability, T/C (second compound 3.16 µM, first compound 0.0001 µM): 75.2%; viability, T/C [16]: 96.3%; viability, T/C [17]: 65.8%; viability, T/C [18]: 59.5%; viability, T/C (second compound 10 µM, first compound 0.0001 µM): 74.2%; viability, T/C [21]: 73%; viability, T/C [22]: 57.6%; viability, T/C [23]: 45.4% |
| CC(=O)OC12COC1CC(O)C1(C)C(=O)C(O)C3=C(C)C(OC(=O)C(O)C(NC(=O)OC(C)(C)C)c4ccccc4)CC(O)(C(OC(=O)c4ccccc4)C21)C3(C)C (stereo not given) + CNCc1ccccc1-c1csc(C(C)Nc2nc(C)nc3cc(OC)c(OC)cc23)c1 | > 3160 | > 3160 | > 3160 | 21.6 | < 10 | – | 102 | 96.3 | 92 | 86.1 | 103 | 91.4 | 105 | 0.58 | 4.38 | 2.71 | 83.4 | 77 | 89.9 | 5.25 | viability, T/C [27]: 81.1%; viability, T/C [28]: 105%; viability, T/C [29]: 87.5%; viability, T/C [31]: 87.8%; viability, T/C [32]: 93.8%; viability, T/C [33]: 95.7%; viability, T/C [35]: 111%; viability, T/C [36]: 119%; viability, T/C [37]: 117%; viability, T/C [39]: 1.73%; viability, T/C [40]: 1.78%; viability, T/C [41]: 104%; viability, T/C [42]: 6.51%; viability, T/C (second compound 10 µM, first compound 0.316 µM): 1.17%; viability, T/C (second compound 10 µM, first compound 1 µM): 110%; viability, T/C (second compound 10 µM, first compound 3.16 µM): 0.46% |
| CC1COCCN1c1cc(-c2ccnn2C)c2ccnc(-c3ccn[nH]3)c2n1 (stereo not given) + C=CC(=O)N1CCN(c2nc(OCC3CCCN3C)nc3c2CCN(c2cccc4cccc(C)c24)C3)CC1CC#N | > 3160 | > 3160 | > 3160 | 190 | – | – | 111 | 95.3 | 106 | 96.6 | 90 | 90.5 | 76.2 | 61 | – | – | 94.6 | 91.5 | 77.8 | 56.8 | IC50 (second compound 0.0316 µM): > 3160 nM; viability, T/C (second compound 0.0316 µM, first compound 0.01 µM): 100%; viability, T/C (second compound 0.0316 µM, first compound 0.0316 µM): 92.7%; viability, T/C (second compound 0.0316 µM, first compound 0.1 µM): 82.4%; viability, T/C (second compound 0.0316 µM, first compound 0.316 µM): 71.3%; viability, T/C (second compound 0.0316 µM, first compound 1 µM): 67.5%; viability, T/C (second compound 0.0316 µM, first compound 3.16 µM): 56%; viability, T/C [27]: 74.8%; viability, T/C [28]: 59%; viability, T/C [29]: 54.1%; viability, T/C [31]: 69.4%; viability, T/C [32]: 59.3%; viability, T/C [33]: 55.6%; viability, T/C [35]: 70.3%; viability, T/C [36]: 64%; viability, T/C [37]: 56.9%; viability, T/C [39]: 42.9%; viability, T/C [40]: 45.6%; viability, T/C [41]: 48% |
| Cn1ncnc1[C@H]1c2n[nH]c(=O)c3cc(F)cc(c23)N[C@@H]1c1ccc(F)cc1 + CC1OCC2(CCN(c3cnc(Sc4ccnc(N)c4Cl)c(N)n3)CC2)C1N | > 100 | > 100 | > 100 | > 100 | > 100 | 95.8 | 99 | 94.3 | 88.3 | 74.9 | 82.6 | 69.4 | 52.8 | 59.5 | 64.5 | 54.2 | 85.1 | 89.6 | 65.6 | 62.9 | viability, T/C [2]: 99.4%; viability, T/C [3]: 102%; viability, T/C [6]: 92.5%; viability, T/C [7]: 83.5%; viability, T/C [8]: 98.1%; viability, T/C [11]: 88.9%; viability, T/C [12]: 95.2%; viability, T/C [13]: 104%; viability, T/C [16]: 83.8%; viability, T/C [17]: 70.1%; viability, T/C [18]: 68.8%; viability, T/C [21]: 68.8%; viability, T/C [22]: 66.4%; viability, T/C [23]: 64.9%; viability, T/C [42]: 54% |
